Laboratory results as given in PubChem BioAssay AID2060613 (Molecular Pharmacology Branch, DTP, NCI, 2025).
pIC50: −log10 of the molar value. Values joined by “and” are separate entries in the source; they are usually repeats but may differ in a detail not shown here. Identical values can stand only once.

System: 233499-124-R-J3-PDC complex spheroid viability
Assay: Anticancer human tumor 233499-124-R-J3-PDC patient-derived colon adenocarcinoma cell line growth inhibition [CLK]
Details: for viability, T/C: stronger effect = lower value
Summary of the method: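 Patient-derived tumor cells grown as complex spheroids with HUVEC endothelial cells and mesenchymal stem cells, treated with drug combinations. Concentrations descend in half-log steps from near clinical Cmax, or from 10 microM if Cmax unknown.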

[1] = curve of first compound, second compound 0.0316 µM
[2] = curve of first compound, second compound 0.1 µM
[3] = curve of first compound, second compound 0.316 µM
[4] = curve of first compound, second compound 1 µM
[5] = curve of first compound, second compound 3.16 µM
[6] = curve of first compound, second compound 10 µM
[7] = second compound 0.0316 µM, first compound 0.0316 µM
[8] = second compound 0.0316 µM, first compound 0.1 µM
[9] = second compound 0.0316 µM, first compound 0.316 µM
[10] = second compound 0.0316 µM, first compound 1 µM
[11] = second compound 0.0316 µM, first compound 3.16 µM
[12] = second compound 0.0316 µM, first compound 10 µM
[13] = second compound 0.1 µM, first compound 0.0316 µM
[14] = second compound 0.1 µM, first compound 0.1 µM
[15] = second compound 0.1 µM, first compound 0.316 µM
[16] = second compound 0.1 µM, first compound 1 µM
[17] = second compound 0.1 µM, first compound 3.16 µM
[18] = second compound 0.1 µM, first compound 10 µM
[19] = second compound 0.316 µM, first compound 0.0316 µM
[20] = second compound 0.316 µM, first compound 0.1 µM
[21] = second compound 0.316 µM, first compound 0.316 µM
[22] = second compound 0.316 µM, first compound 1 µM
[23] = second compound 0.316 µM, first compound 3.16 µM
[24] = second compound 0.316 µM, first compound 10 µM
[25] = second compound 1 µM, first compound 0.0316 µM
[26] = second compound 1 µM, first compound 0.1 µM
[27] = second compound 1 µM, first compound 0.316 µM
[28] = second compound 1 µM, first compound 1 µM
[29] = second compound 1 µM, first compound 3.16 µM
[30] = second compound 1 µM, first compound 10 µM
[31] = second compound 3.16 µM, first compound 0.0316 µM
[32] = second compound 3.16 µM, first compound 0.1 µM
[33] = second compound 3.16 µM, first compound 0.316 µM
[34] = second compound 3.16 µM, first compound 1 µM
[35] = second compound 3.16 µM, first compound 3.16 µM
[36] = second compound 3.16 µM, first compound 10 µM
[37] = second compound 10 µM, first compound 0.0316 µM
[38] = second compound 10 µM, first compound 0.1 µM
[39] = second compound 10 µM, first compound 0.316 µM
[40] = second compound 10 µM, first compound 1 µM
[41] = second compound 10 µM, first compound 3.16 µM
[42] = second compound 10 µM, first compound 10 µM
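Note: spheroids exposed to the drug combinations for seven days.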
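Throughout, for viability, T/C: percent viability relative to DMSO vehicle control wells taken as 100%.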

SMILES: O=C(c1cc(Cc2n[nH]c(=O)c3ccccc23)ccc1F)N1CCN(C(=O)C2CC2)CC1 + CNC(=O)c1ccc(Nc2nc(OC3CCCC3)c3c(-c4ccc5nc(C)oc5c4)c[nH]c3n2)c(OC)c1
- pIC50 [1]: < 5.00
- pIC50 [2]: < 5.00
- pIC50 [3]: < 5.00
- pIC50 [4]: < 5.00
- pIC50 [5]: < 5.00
- pIC50 [6]: < 5.00
- viability, T/C [7]: 96%
- viability, T/C [8]: 91.1%
- viability, T/C [9]: 93%
- viability, T/C [10]: 102%
- viability, T/C [11]: 102%
- viability, T/C [12]: 95.7%
- viability, T/C [13]: 76.7%
- viability, T/C [14]: 84.3%
- viability, T/C [15]: 71.6%
- viability, T/C [16]: 70.1%
- viability, T/C [17]: 57.8%
- viability, T/C [18]: 55.1%
- viability, T/C [19]: 75.6%
- viability, T/C [20]: 77.7%
- viability, T/C [21]: 78%
- viability, T/C [22]: 78%
- viability, T/C [23]: 84.1%
- viability, T/C [24]: 76.2%
- viability, T/C [25]: 67.6%
- viability, T/C [26]: 79.6%
- viability, T/C [27]: 65.6%
- viability, T/C [28]: 71.2%
- viability, T/C [29]: 74.4%
- viability, T/C [30]: 68.4%
- viability, T/C [31]: 80%
- viability, T/C [32]: 79.1%
- viability, T/C [33]: 75.6%
- viability, T/C [34]: 66.7%
- viability, T/C [35]: 87.8%
- viability, T/C [36]: 59.6%
- viability, T/C [37]: 71%
- viability, T/C [38]: 85.3%
- viability, T/C [39]: 74.8%
- viability, T/C [40]: 75.2%
- viability, T/C [41]: 65%
- viability, T/C [42]: 57.1%

SMILES: O=c1[nH]cc(F)c(=O)[nH]1
- viability, T/C (compound 0.0316 µM): 94.9% and 97.3%
- viability, T/C (compound 0.1 µM): 106% and 96%
- viability, T/C (compound 0.316 µM): 55.2% and 69.3%
- viability, T/C (compound 1 µM): 50.6% and 37.5%
- viability, T/C (compound 3.16 µM): 31.1% and 20.9%
- viability, T/C (compound 10 µM): 30.8% and 23.1%
- pIC50 (curve of compound): 6.35 and 6.20

SMILES: COC1C=CCC(C)C(C)S(=O)(=O)NC(=O)c2ccc3c(c2)N(CC2CCC21)CC1(CCCc2cc(Cl)ccc21)CO3 (stereo not drawn)
- viability, T/C (compound 0.0316 µM): 101% and 96.4%
- viability, T/C (compound 0.1 µM): 86.9% and 97.1%
- viability, T/C (compound 0.316 µM): 74% and 90.9%
- viability, T/C (compound 1 µM): 80.4% and 83.1%
- viability, T/C (compound 3.16 µM): 58.9% and 76%
- viability, T/C (compound 10 µM): 5.33% and 8.83%
- pIC50 (curve of compound): 5.44 and 5.32

SMILES: C=CC(=O)N1CCN(c2nc(=O)n(-c3c(C)ccnc3C(C)C)c3nc(-c4c(O)cccc4F)c(F)cc23)C(C)C1 (stereo not drawn) + CNC(=O)c1ccc(Nc2nc(OC3CCCC3)c3c(-c4ccc5nc(C)oc5c4)c[nH]c3n2)c(OC)c1
- pIC50 [1]: < 5.00
- pIC50 [2]: < 5.00
- pIC50 [3]: < 5.00
- pIC50 [4]: < 5.00
- pIC50 [5]: < 5.00
- pIC50 [6]: < 5.00
- viability, T/C [7]: 84.8%
- viability, T/C [8]: 86.5%
- viability, T/C [9]: 94.4%
- viability, T/C [10]: 93.6%
- viability, T/C [11]: 96.3%
- viability, T/C [12]: 98.3%
- viability, T/C [13]: 79.6%
- viability, T/C [14]: 71.6%
- viability, T/C [15]: 72.6%
- viability, T/C [16]: 79.7%
- viability, T/C [17]: 85.2%
- viability, T/C [18]: 77.5%
- viability, T/C [19]: 75.9%
- viability, T/C [20]: 76.4%
- viability, T/C [21]: 75.8%
- viability, T/C [22]: 75.4%
- viability, T/C [23]: 80.5%
- viability, T/C [24]: 82.8%
- viability, T/C [25]: 81.2%
- viability, T/C [26]: 73.7%
- viability, T/C [27]: 74.3%
- viability, T/C [28]: 87.5%
- viability, T/C [29]: 90%
- viability, T/C [30]: 86.4%
- viability, T/C [31]: 68.5%
- viability, T/C [32]: 71.3%
- viability, T/C [33]: 65.7%
- viability, T/C [34]: 86.7%
- viability, T/C [35]: 80.5%
- viability, T/C [36]: 76.7%
- viability, T/C [37]: 71.2%
- viability, T/C [38]: 78.4%
- viability, T/C [39]: 69.6%
- viability, T/C [40]: 74.8%
- viability, T/C [41]: 81%
- viability, T/C [42]: 91.2%
